US6730666B1, “Pharmaceutical compositions comprising porphyrins and some novel porphyrin derivatives” (Yeda Research and Development Co. Ltd., priority 1998, dated 2004)
Entries after “also recorded” stand apart in the source; their conditions may differ.

Key:
FGFR-3 = biological target: T1, FGFR-3 (Homo sapiens, UniProt P22607); test: Binding of 125I-FGF9 to immobilized soluble FGFR-3 (FR-3-AP); conditions: FIG. 11
T1 construct: soluble FGFR-3 ectodomain alkaline phosphatase fusion protein (FR-3-AP); made in house; host or cells: NIH 3T3 cells (conditioned medium)
T1 sequence (P22607 23-375 limits assumed): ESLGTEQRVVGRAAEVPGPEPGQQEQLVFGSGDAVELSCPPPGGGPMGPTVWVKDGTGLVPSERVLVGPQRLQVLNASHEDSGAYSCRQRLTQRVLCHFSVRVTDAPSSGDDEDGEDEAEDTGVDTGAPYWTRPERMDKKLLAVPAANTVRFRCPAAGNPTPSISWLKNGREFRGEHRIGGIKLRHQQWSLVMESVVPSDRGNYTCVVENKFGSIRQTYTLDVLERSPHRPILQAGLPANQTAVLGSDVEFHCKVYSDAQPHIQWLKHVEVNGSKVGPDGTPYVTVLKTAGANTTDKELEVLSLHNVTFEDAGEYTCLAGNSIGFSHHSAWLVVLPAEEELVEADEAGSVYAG
Method: Incubations were performed in the presence of 100 ng/ml heparin and increasing concentrations of porphyrins. […] Results represent the mean value in one of at least two independent experiments.
(iii) Binding of ^125I-bFGF or ^125I-FGF9 to s luble FGFR-1 or FGFR-3. Conditioned medium from NIH 3T3 cells secreting soluble FRAP or FGFR-3 FR-3-AP, was incubated for 45 min at room temperature with rabbit anti-human placental AP antibodies (generated as described in Ornitz et al, 1991) prebound to agarose-protein A beads Pierce). The FGFR-1 or FGFR-3-coupled beads were washed three times with 1 ml HNTG and incubated with 2 ng/ml of ^125I-FGF, 1 μg/ml of heparin and porphyrin/corrole compound at different concentrations for 1 h at room temperature. High affinity-bound ^125I-bFGF was determined by counting of the samples in a γ-counter.
Thus, the compounds were tested for their capacity to inhibit binding of a soluble FGFR-3 ectodomain alkaline phosphatase fusion protein (FR-3-AP) to FGF-9, utilizing a cell free system, similar to the one described for FGFR-1 in Example 1 above, and measuring the binding of radiolabeled ^125I-FGF-9 to soluble FGFR-3.

FGFR-1 = FGFR-1 (Mus musculus, UniProt P16092); test: Binding of 125I-bFGF to CHO cells expressing FGFR-1; conditions: read-out: Cellular receptor binding (IC50); binding of FGF to FGFR; Methods section (iv)
Chain of FGFR-1 (P16092 22-822): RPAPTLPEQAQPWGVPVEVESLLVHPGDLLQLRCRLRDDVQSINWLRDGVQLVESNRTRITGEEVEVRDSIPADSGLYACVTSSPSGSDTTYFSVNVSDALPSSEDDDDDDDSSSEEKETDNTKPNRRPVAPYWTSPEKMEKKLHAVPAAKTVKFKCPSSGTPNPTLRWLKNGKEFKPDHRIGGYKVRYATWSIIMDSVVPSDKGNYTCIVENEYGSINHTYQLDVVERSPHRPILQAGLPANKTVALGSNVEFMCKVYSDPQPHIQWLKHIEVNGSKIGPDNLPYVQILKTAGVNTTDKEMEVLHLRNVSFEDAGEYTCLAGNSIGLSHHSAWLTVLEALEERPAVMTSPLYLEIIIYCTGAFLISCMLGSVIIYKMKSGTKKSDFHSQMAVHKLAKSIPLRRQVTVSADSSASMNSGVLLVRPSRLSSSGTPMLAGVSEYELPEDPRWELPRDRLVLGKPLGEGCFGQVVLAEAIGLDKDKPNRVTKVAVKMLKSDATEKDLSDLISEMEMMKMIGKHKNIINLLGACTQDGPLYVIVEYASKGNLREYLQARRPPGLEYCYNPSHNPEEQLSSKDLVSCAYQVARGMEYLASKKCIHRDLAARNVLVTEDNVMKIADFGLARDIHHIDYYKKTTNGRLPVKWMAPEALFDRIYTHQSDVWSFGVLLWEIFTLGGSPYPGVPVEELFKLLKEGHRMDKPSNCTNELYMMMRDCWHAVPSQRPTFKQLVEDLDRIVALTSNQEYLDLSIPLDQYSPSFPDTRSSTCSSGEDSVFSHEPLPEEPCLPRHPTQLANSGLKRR
Method: The binding medium was discarded and the cells were washed once with ice-cold DMEM/BSA and twice with cold PBS (pH 7.5) containing 1.6M NaCl. […] Non-specific binding was determined in the presence of a 100-fold excess of unlabeled bFGF.
First we utilized a cell-free system, measuring the binding of radiolabeled bFGF to a dimeric soluble FGFR-1 fused to alkaline phosphatase. The soluble FRAP was immobilized using an anti-alkaline phosphatase antibody prebound to agarose-protein A beads (see Methods, section (iii)). As a: second experimental model, we used CHO cells deficient in heparan sulfate and genetically engineered to express FGFR-1 (Methods, section (iv)).

soluble FGFR-1 (FRAP) = biological target: T2, soluble FGFR-1 (FRAP) (Mus musculus, UniProt P16092); test: Binding of 125I-bFGF to immobilized soluble FGFR-1 (FRAP), cell-free
T2 sequence (P16092 22-376 limits assumed): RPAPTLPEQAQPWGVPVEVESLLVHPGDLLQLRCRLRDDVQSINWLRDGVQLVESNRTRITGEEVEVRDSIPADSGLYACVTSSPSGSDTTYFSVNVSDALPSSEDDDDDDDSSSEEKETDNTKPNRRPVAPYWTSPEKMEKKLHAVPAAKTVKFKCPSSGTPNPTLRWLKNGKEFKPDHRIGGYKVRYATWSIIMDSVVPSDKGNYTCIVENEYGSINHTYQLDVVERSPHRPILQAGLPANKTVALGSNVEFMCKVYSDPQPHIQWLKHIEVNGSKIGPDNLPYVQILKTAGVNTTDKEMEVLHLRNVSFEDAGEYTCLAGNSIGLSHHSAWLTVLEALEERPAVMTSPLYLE
Description: First we utilized a cell-free system, measuring the binding of radiolabeled bFGF to a dimeric soluble FGFR-1 fused to alkaline phosphatase. […] As a: second experimental model, we used CHO cells deficient in heparan sulfate and genetically engineered to express FGFR-1 (Methods, section (iv)).

[1] = system: Lewis lung carcinoma (LLC) lung metastasis; test: Lewis lung carcinoma lung metastasis model; assay type: in vivo, C57 black mice; set-up: Inhibitory activity in vivo, LLC tumor model (as % of total inhibition): reference not given here
Method: (vii) Lewis lung carcinoma tumor assay. Murine Lewis lung carcinoma (LLC) D122 cells (1×10^6 cells/[…] PBS) were injected into the foot pads of 10-week old C57 black mice (O'Reilly et al, 1994). Twenty five μg/g of body mass of porphyrin or corrole compound dissolved in PBS were injected IP twice a week to the treated group, and tumor size was measured periodically in order to follow primary tumor formation. In order to evaluate inhibition of lung metastasis by porphyrin or corrole compound, the primary tumors were allowed to develop over a period of six weeks to a volume of approximately 8 mm^3; after which the tumors were removed and metastases were allowed to develop for four weeks. During this time the treated group received 25 μg/g of body mass of porphyrin or corrole compound IP twice a week. Subsequently the mice were sacrificed, dissected and the lungs removed and photographed. The extent of lung metastasis was measured by weighing the lungs.
After establishing the capacity of P1 to inhibit primary tumor growth, the capacity of P1 to inhibit lung metastasis formation was measured as described in Methods, section (vi). Mice were injected with LLC cells (200,000 cells per mouse) into the foot pad and primary tumors were allowed to develop over a period of 3 to 4 weeks to a volume of approximately 8 mm^3. Subsequently, primary tumors were removed through amputation and lung metasases were allowed to develop for four weeks before the mice were sacrificed. The extent of lung metastasis at this point was examined by gross morphological examination and by determining the gain in lung weight. […] In order to quantitate the results from these experiments, the lungs from all mice were weighed and evaluated for the extent of metastatic growth.

FGF receptor = FGF receptor (Mus musculus, UniProt P16092); test: In vitro inhibition of bFGF binding (assay format not stated)
Chain of FGF receptor (P16092 22-822): as the sequence (P16092 22-822) above

Row | SMILES | Relative potency in FGF-9/FGFR-3 soluble receptor assay, in words (FGFR-3) | IC50 (FGFR-1) [nM] | IC50 (soluble FGFR-1 (FRAP); read-out: Soluble receptor binding (IC50), binding of FGF to FGFR, Methods section (iii)) [nM] | Inhibition of lung metastasis in LLC model, in words ([1]; 25 μg/g of body mass IP) | Inhibitory activity in vivo, LLC tumor model (as % of total inhibition) ([1]; 25 μg/gram, LLC murine tumor model, lung metastasis) [%] | Activity in vitro in words (inhibition of bFGF binding) (FGF receptor) | Inhibition of bFGF binding to immobilized FRAP, in words (soluble FGFR-1 (FRAP); FIG. 8B)
1 | C[N+](C)(C)c1c(F)c(F)c(-c2c3nc(c(-c4c(F)c(F)c([N+](C)(C)C)c(F)c4F)c4ccc([nH]4)c(-c4c(F)c(F)c([N+](C)(C)C)c(F)c4F)c4nc(c(-c5c(F)c(F)c([N+](C)(C)C)c(F)c5F)c5ccc2[nH]5)C=C4)C=C3)c(F)c1F.O=S(=O)([O-])C(F)(F)F.O=S(=O)([O-])C(F)(F)F.O=S(=O)([O-])C(F)(F)F.O=S(=O)([O-])C(F)(F)F [Compound P15, 5,10,15,20-Tetrakis(2,3,5,6-tetrafluoro-4-trimethyl-ammonio-phenyl)-21H,23H-methyl-porphine tetra-trifluoromethylsulfonate] | more potent | 120 | 80 |  |  |  | 
2 | C[n+]1ccccc1-c1c(F)c(F)c(-c2c3nc(c(-c4c(F)c(F)c(-c5cccc[n+]5C)c(F)c4F)c4ccc([nH]4)c(-c4c(F)c(F)c(-c5cccc[n+]5C)c(F)c4F)c4nc(c(-c5c(F)c(F)c(-c6cccc[n+]6C)c(F)c5F)c5ccc2[nH]5)C=C4)C=C3)c(F)c1F [Compound P20, 5,10,15,20-Tetrakis[4-(N-methyl-2-pyridylium) 2,3,5,6-tetrafluoro-phenyl]-21H,23H-porphine tetraiodide] |  |  |  | highly active in vivo; also recorded: more active than P1 | 150 | significantly more active than P1 | inhibit bFGF binding in vitro
